In brackets after ≈: the same amount, converted by molar mass.
Experiments:
[1] = gastric-to-intestinal (GB/IB) two-stage dissolution test; format: physicochemical; conditions: Example 5, GB stage, 75 mL 0.01M HCl, 100 mg nominal dose
Protocol: A two-stage dissolution test was also conducted on all four coating weights to determine if gastric exposure affected performance.
Gastric-to-intestinal (GB-IB) non-sink dissolution test: The formulation having a 50% theoretical coating weight was tested in a GB-IB non-sink dissolution test as described in the table below:

[2] = non-sink dissolution in pH 6.5 PBS with 0.5% SIF, USP Apparatus II; format: physicochemical; conditions: Example 5; 1 mg/mL in PBS pH 6.5 with 0.5% SIF, 37° C., 250 rpm
Protocol: The performance of all four coating weights was evaluated by dissolution in pH 6.5 phosphate buffered saline (PBS) containing 0.5% SIF powder.

[3] = amorphous solubility in pH 6.5 PBS containing 0.5% SIF; format: physicochemical; conditions: phosphate buffered saline with 0.5% SIF powder, fassif; pH 6.5 PBS containing 0.5% SIF powder; read-out: approximate amorphous solubility
TrkB = TrkB (Homo sapiens, UniProt Q16620); conditions: background statement; cited from earlier work
TrkB, sequence (Q16620 32-822): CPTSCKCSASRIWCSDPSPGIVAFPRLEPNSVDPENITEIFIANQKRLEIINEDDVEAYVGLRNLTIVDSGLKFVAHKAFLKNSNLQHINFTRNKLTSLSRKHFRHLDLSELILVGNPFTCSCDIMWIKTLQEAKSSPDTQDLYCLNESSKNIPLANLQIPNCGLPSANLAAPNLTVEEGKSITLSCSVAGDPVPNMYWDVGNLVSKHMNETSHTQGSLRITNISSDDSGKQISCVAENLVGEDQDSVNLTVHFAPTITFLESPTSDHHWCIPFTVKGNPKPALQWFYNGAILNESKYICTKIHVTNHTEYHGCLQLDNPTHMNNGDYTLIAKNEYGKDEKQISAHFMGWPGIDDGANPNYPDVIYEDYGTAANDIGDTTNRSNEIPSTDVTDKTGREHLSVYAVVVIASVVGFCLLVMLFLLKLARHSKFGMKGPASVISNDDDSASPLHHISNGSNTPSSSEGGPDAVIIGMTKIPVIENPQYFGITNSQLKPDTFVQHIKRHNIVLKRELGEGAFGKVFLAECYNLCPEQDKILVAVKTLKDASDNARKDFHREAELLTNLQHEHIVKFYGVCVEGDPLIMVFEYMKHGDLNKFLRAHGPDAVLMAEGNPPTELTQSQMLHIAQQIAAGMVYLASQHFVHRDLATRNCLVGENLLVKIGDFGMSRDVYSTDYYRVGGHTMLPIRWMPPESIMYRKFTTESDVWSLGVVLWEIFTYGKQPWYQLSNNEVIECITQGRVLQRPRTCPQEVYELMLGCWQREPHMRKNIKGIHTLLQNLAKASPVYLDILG

TrkC = TrkC (Homo sapiens, UniProt Q16288); conditions: background statement; cited from earlier work
TrkC, sequence (Q16288 32-839): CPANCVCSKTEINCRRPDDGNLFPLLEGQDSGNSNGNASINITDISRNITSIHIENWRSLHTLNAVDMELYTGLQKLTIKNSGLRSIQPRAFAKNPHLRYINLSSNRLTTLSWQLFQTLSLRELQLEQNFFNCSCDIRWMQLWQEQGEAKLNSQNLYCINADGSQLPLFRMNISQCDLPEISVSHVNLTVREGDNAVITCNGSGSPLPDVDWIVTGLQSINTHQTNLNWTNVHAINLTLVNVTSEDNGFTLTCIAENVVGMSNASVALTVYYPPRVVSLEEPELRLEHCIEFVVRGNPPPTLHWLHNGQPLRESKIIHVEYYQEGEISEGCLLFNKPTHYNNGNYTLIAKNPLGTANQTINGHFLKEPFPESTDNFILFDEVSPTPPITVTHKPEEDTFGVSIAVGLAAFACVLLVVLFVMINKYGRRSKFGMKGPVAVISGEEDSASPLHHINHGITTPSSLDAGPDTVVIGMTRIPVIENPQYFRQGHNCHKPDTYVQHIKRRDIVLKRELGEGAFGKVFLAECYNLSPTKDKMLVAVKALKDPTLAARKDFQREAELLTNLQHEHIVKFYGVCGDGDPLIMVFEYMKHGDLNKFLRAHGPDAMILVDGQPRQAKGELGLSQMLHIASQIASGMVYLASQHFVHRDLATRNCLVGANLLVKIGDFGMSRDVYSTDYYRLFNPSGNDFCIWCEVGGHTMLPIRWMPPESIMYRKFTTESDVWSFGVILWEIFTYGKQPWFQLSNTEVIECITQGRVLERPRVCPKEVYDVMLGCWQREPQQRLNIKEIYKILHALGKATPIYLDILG

[4] = single-dose food effect study in dogs; format: in vivo, dog; conditions: formulation that did not comprise at least one polymer
Excerpt: Such food effects can cause difficulty during human testing of drugs as the fed or fasted condition of the patient can cause exposure or bioavailability of drugs to vary widely.

[5] = molecular target: anaplastic lymphoma kinase (ALK) (Homo sapiens, UniProt Q9UM73); conditions: background statement; cited from earlier work
anaplastic lymphoma kinase (ALK), sequence (Q9UM73 19-1620): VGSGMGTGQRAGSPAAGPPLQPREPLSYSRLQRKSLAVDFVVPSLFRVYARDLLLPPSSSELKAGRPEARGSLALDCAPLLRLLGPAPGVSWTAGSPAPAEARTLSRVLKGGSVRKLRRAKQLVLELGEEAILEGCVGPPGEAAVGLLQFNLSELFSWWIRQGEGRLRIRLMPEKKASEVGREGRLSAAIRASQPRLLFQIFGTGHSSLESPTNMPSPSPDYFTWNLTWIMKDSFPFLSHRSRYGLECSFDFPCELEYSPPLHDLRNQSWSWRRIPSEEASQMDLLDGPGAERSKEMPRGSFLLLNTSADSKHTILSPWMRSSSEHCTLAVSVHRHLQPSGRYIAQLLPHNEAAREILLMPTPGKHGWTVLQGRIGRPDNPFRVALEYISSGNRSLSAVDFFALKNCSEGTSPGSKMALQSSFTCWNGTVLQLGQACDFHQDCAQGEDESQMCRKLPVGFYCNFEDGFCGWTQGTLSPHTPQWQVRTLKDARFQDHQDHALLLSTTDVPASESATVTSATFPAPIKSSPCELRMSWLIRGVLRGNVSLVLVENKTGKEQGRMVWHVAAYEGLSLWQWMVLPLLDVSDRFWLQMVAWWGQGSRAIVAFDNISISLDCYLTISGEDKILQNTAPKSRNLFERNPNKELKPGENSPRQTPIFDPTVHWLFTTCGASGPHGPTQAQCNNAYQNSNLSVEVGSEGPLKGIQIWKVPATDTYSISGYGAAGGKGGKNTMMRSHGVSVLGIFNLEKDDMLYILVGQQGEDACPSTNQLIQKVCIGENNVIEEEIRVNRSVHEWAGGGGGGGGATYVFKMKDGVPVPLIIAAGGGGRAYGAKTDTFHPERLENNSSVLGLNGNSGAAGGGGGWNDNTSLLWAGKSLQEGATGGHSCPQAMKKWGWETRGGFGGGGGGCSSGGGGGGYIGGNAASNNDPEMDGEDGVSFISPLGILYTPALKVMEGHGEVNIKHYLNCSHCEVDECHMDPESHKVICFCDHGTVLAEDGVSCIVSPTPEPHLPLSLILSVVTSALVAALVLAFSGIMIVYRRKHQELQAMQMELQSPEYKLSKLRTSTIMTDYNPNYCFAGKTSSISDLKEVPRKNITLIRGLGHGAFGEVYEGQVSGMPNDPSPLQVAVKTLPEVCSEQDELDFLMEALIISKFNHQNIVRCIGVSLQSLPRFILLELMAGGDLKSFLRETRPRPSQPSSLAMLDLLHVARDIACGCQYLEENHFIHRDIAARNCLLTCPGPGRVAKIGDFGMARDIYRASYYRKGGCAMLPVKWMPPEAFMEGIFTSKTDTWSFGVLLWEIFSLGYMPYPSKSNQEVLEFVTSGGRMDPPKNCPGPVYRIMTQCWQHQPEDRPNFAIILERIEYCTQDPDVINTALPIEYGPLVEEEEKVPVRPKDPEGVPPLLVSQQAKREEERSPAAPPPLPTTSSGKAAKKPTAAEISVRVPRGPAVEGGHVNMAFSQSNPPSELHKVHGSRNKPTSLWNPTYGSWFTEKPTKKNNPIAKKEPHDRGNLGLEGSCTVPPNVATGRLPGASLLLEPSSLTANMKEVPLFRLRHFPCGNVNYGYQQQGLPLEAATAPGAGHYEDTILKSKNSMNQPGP

[6] = tested on: various forms of cancer having at least one molecular alteration in one or more of ALK, ROS1, TrkA, TrkB and TrkC; conditions: early clinical studies, patients with alteration in ALK; cited from earlier work
[7] = solubility in solvents for fluid bed coating; format: physicochemical
Protocol: The solutions included 80/20 acetone/water, 95/5 acetone/water, 90/10 acetone/water, methyl ethyl ketone, acetone and methanol at 40° C. […] The lab temperature was monitored and ranged from 17° C. to 25° C., fluctuating with time of day during testing.

dose reached in the pH 2.0 media [1]	dose released within about 75 minutes [2]	solubility [3] [µg/mL]	exposure levels under fed conditions compared to fasting conditions [4]	solubility in acetone/water solutions ([7]; 80/20, 95/5, 90/10 acetone/water, for 24 hours, lab temperature 17-25° C.)	time until completely dissolved in acetone/water solutions ([7]; approximately 170 mg per mL of solvent) [min]	Compound	inhibition of TrkB (TrkB)	inhibition of TrkC (TrkC)	inhibition of ALK [5]	antitumor effects in patients [6]
full dose	about 15%					CN1CCN(c2ccc(C(=O)Nc3n[nH]c4ccc(Cc5cc(F)cc(F)c5)cc34)c(NC3CCOCC3)c2)CC1 [API, N-[5-(3,5-difluorobenzyl)-1H-indazol-3-yl]-4-(4-methyl-piperazin-1-yl)-2-(tetrahydro-2H-pyran-4-ylamino)-benzamide]				
		~1000 (≈ 1780 µM)	approximately 2 fold	greater than mg/mL	≤ 30	CN1CCN(c2ccc(C(=O)Nc3n[nH]c4ccc(Cc5cc(F)cc(F)c5)cc34)c(NC3CCOCC3)c2)CC1 [N-[5-(3,5-difluorobenzyl)-1H-indazol-3-yl]-4-(4-methyl-piperazin-1-yl)-2-(tetrahydro-2H-pyran-4-ylamino)-benzamide]	potent inhibitor	potent inhibitor	potent inhibitor	antitumor effects

From patent US11007191B2, “Pharmaceutical compositions and dosage forms” (IGNYTA, INC., priority 2017, dated 2021)
